What was measured:
[1] = Plasma concentration in rat at 3 mg/kg, po after 18 hrs; type: ADME, organism-based; parameters: dose 3 mg/kg, route oral; settings: Wistar Han
[2] = Plasma concentration in rat at 3 mg/kg, po after 9 hrs; type: ADME, organism-based; parameters: dose 3 mg/kg, route oral; settings: Wistar Han
[3] = Plasma concentration in rat at 1 mg/kg, iv after 0.033 hrs; type: ADME, organism-based; parameters: dose 1 mg/kg, route intravenous; settings: Wistar Han
Rattus norvegicus [4] = assay: Concentration in rat brain at 10 mg/kg, po after 1.5 hrs; type: ADME, organism-based, Wistar Han; parameters: dose 10 mg/kg, route oral; settings: in vivo
[5] = Plasma concentration in rat at 10 mg/kg, po after 4 hrs; type: ADME, organism-based; parameters: dose 10 mg/kg, route oral; settings: Wistar Han
[6] = Plasma concentration in rat at 1 mg/kg, iv after 2 hrs; type: ADME, organism-based; parameters: dose 1 mg/kg, route intravenous; settings: Wistar Han
Rattus norvegicus [7] = assay: Concentration in rat brain at 3 mg/kg, po after 18 hrs; type: ADME, organism-based, Wistar Han; parameters: dose 3 mg/kg, route oral; settings: in vivo
Rattus norvegicus [8] = assay: Concentration in rat brain at 10 mg/kg, po after 9 hrs; type: ADME, organism-based, Wistar Han; parameters: dose 10 mg/kg, route oral; settings: in vivo
[9] = Plasma concentration in rat at 3 mg/kg, po after 2 hrs; type: ADME, organism-based; parameters: dose 3 mg/kg, route oral; settings: Wistar Han
[10] = Plasma concentration in rat at 10 mg/kg, po after 2 hrs; type: ADME, organism-based; parameters: dose 10 mg/kg, route oral; settings: Wistar Han
[11] = target: Transient receptor potential cation channel subfamily V member 1 (Rattus norvegicus, UniProt O35433); assay: Inhibition of low pH activation of rat TRPV1; type: functional
Sequence of Transient receptor potential cation channel subfamily V member 1 (Rattus norvegicus, UniProt O35433) (O35433 whole entry): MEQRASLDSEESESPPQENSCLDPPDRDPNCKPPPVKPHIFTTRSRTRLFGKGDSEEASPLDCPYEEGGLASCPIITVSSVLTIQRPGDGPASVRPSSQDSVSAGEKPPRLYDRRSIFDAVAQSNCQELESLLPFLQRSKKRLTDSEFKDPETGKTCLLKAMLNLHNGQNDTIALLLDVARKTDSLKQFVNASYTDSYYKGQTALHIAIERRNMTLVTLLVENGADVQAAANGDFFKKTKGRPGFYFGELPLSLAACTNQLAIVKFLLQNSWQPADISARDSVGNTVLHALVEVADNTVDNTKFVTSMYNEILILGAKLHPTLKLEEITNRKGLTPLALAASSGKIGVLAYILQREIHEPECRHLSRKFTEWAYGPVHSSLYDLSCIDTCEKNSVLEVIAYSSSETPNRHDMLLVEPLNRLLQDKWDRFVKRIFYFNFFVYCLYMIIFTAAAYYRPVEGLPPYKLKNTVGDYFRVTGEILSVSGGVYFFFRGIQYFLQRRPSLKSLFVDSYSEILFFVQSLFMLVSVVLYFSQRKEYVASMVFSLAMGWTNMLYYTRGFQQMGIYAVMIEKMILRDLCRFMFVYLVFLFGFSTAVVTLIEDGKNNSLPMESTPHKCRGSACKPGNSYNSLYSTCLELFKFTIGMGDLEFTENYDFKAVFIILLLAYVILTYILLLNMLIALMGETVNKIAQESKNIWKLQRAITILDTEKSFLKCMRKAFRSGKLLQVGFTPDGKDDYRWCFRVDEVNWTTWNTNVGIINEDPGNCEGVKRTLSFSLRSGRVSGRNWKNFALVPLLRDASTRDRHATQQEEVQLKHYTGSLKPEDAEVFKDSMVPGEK

Rattus norvegicus [12] = assay: Concentration in rat brain at 1 mg/kg, iv after 1 hrs; type: ADME, organism-based, Wistar Han; parameters: dose 1 mg/kg, route intravenous; settings: in vivo
Rattus norvegicus [13] = assay: Concentration in rat brain at 1 mg/kg, iv after 0.5 hrs; type: ADME, organism-based, Wistar Han; parameters: dose 1 mg/kg, route intravenous; settings: in vivo
Rattus norvegicus [14] = assay: Concentration in rat brain at 3 mg/kg, po after 4 hrs; type: ADME, organism-based, Wistar Han; parameters: dose 3 mg/kg, route oral; settings: in vivo
[15] = Plasma concentration in rat at 1 mg/kg, iv after 0.5 hrs; type: ADME, organism-based; parameters: dose 1 mg/kg, route intravenous; settings: Wistar Han
[16] = target: Transient receptor potential cation channel subfamily V member 1 (Rattus norvegicus) (UniProt O35433); assay: Effect on inflammatory mechanical hyperalgesia in rat at 1 hr; type: functional
Sequence of Transient receptor potential cation channel subfamily V member 1 (Rattus norvegicus) (O35433 whole entry): as above

Rattus norvegicus [17] = assay: Concentration in rat brain at 1 mg/kg, iv after 0.083 hrs; type: ADME, organism-based, Wistar Han; parameters: dose 1 mg/kg, route intravenous; settings: in vivo
[18] = target: Transient receptor potential cation channel subfamily V member 1 (Homo sapiens, UniProt Q8NER1); assay: Inhibition of calcium influx evoked by capsaicin in human TRPV1 expressing cells by fluorescence assay; type: functional
Sequence of Transient receptor potential cation channel subfamily V member 1 (Homo sapiens, UniProt Q8NER1) (Q8NER1 whole entry): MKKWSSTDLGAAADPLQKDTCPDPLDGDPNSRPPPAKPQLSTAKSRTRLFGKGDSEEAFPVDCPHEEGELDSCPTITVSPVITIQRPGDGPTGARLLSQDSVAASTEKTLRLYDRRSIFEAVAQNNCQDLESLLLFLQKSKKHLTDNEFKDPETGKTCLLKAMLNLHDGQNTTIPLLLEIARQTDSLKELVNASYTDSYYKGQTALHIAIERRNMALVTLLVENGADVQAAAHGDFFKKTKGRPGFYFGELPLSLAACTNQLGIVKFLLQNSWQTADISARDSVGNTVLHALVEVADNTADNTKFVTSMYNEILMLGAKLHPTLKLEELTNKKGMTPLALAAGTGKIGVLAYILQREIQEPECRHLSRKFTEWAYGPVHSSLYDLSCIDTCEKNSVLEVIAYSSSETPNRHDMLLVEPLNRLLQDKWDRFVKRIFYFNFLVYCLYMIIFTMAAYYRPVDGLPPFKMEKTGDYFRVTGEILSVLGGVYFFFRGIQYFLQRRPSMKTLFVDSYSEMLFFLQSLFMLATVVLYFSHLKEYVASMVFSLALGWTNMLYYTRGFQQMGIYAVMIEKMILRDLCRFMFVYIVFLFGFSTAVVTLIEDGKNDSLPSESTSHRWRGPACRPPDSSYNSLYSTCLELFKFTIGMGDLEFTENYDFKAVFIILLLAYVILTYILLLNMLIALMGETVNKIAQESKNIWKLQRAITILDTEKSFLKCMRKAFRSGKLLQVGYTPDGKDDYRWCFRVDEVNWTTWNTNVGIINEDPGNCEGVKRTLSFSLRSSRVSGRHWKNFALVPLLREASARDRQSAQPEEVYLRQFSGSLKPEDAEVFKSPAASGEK

Rattus norvegicus [19] = assay: Concentration in rat brain at 3 mg/kg, po after 9 hrs; type: ADME, organism-based, Wistar Han; parameters: dose 3 mg/kg, route oral; settings: in vivo
Rattus norvegicus [20] = assay: Cmax in rat brain at 1 mg/kg, iv; type: ADME, organism-based, Wistar Han; parameters: dose 1 mg/kg, route intravenous; settings: in vivo
[21] = Plasma concentration in rat at 1 mg/kg, iv after 4 hrs; type: ADME, organism-based; parameters: dose 1 mg/kg, route intravenous; settings: Wistar Han
Rattus norvegicus [22] = assay: Concentration in rat brain at 1 mg/kg, iv after 0.16 hrs; type: ADME, organism-based, Wistar Han; parameters: dose 1 mg/kg, route intravenous; settings: in vivo
Rattus norvegicus [23] = assay: Concentration in rat brain at 1 mg/kg, iv after 2 hrs; type: ADME, organism-based, Wistar Han; parameters: dose 1 mg/kg, route intravenous; settings: in vivo
Rattus norvegicus [24] = assay: Concentration in rat brain at 10 mg/kg, po after 4 hrs; type: ADME, organism-based, Wistar Han; parameters: dose 10 mg/kg, route oral; settings: in vivo
[25] = Plasma concentration in rat at 1 mg/kg, iv after 0.083 hrs; type: ADME, organism-based; parameters: dose 1 mg/kg, route intravenous; settings: Wistar Han
Rattus norvegicus [26] = assay: Concentration in rat brain at 3 mg/kg, po after 1 hrs; type: ADME, organism-based, Wistar Han; parameters: dose 3 mg/kg, route oral; settings: in vivo
[27] = Plasma concentration in rat at 3 mg/kg, po after 1.5 hrs; type: ADME, organism-based; parameters: dose 3 mg/kg, route oral; settings: Wistar Han
Rattus norvegicus [28] = assay: Concentration in rat brain at 1 mg/kg, iv after 4 hrs; type: ADME, organism-based, Wistar Han; parameters: dose 1 mg/kg, route intravenous; settings: in vivo
[29] = Plasma concentration in rat at 3 mg/kg, po after 6 hrs; type: ADME, organism-based; parameters: dose 3 mg/kg, route oral; settings: Wistar Han
[30] = Plasma concentration in rat at 1 mg/kg, iv after 1.5 hrs; type: ADME, organism-based; parameters: dose 1 mg/kg, route intravenous; settings: Wistar Han
Rattus norvegicus [31] = assay: Concentration in rat brain at 3 mg/kg, po after 24 hrs; type: ADME, organism-based, Wistar Han; parameters: dose 3 mg/kg, route oral; settings: in vivo
Rattus norvegicus [32] = assay: Concentration in rat brain at 10 mg/kg, po after 0.5 hrs; type: ADME, organism-based, Wistar Han; parameters: dose 10 mg/kg, route oral; settings: in vivo
[33] = Plasma concentration in rat at 3 mg/kg, po after 0.16 hrs; type: ADME, organism-based; parameters: dose 3 mg/kg, route oral; settings: Wistar Han
[34] = Plasma concentration in rat at 10 mg/kg, po after 18 hrs; type: ADME, organism-based; parameters: dose 10 mg/kg, route oral; settings: Wistar Han
[35] = Plasma concentration in rat at 10 mg/kg, po after 9 hrs; type: ADME, organism-based; parameters: dose 10 mg/kg, route oral; settings: Wistar Han
Rattus norvegicus [36] = assay: Cmax in rat brain at 3 mg/kg, po; type: ADME, organism-based, Wistar Han; parameters: dose 3 mg/kg, route oral; settings: in vivo
Rattus norvegicus [37] = assay: Concentration in rat brain at 1 mg/kg, iv after 0.033 hrs; type: ADME, organism-based, Wistar Han; parameters: dose 1 mg/kg, route intravenous; settings: in vivo
[38] = Plasma concentration in rat at 10 mg/kg, po after 1.5 hrs; type: ADME, organism-based; parameters: dose 10 mg/kg, route oral; settings: Wistar Han

- concentration at 18 h [1]: 90 nM
- concentration at 9 h [2]: 904 nM
- concentration at 0.033 h [3]: 3540 nM
- Ct (Rattus norvegicus [4]): 1038 pmol/g
- concentration at 4 h [5]: 5970 nM
- concentration at 2 h [6]: 1080 nM
- Ct (Rattus norvegicus [7]): < 125 pmol/g
- Ct (Rattus norvegicus [8]): 811 pmol/g
- concentration at 2 h [9]: 1420 nM
- concentration at 2 h [10]: 4340 nM
- IC50 [11]: 105 nM
- Ct (Rattus norvegicus [12]): 709 pmol/g
- Ct (Rattus norvegicus [13]): 1079 pmol/g
- Ct (Rattus norvegicus [14]): 1666 pmol/g
- concentration at 0.5 h [15]: 1180 nM
- ED50 [16]: 4.7 mg/kg
- Ct (Rattus norvegicus [17]): 960 pmol/g
- IC50 [18]: 50 nM
- Ct (Rattus norvegicus [19]): 249 pmol/g
- Cmax (Rattus norvegicus [20]): 1079 pmol/g
- concentration at 4 h [21]: 726 nM
- Ct (Rattus norvegicus [22]): 944 pmol/g
- Ct (Rattus norvegicus [23]): 449 pmol/g
- Ct (Rattus norvegicus [24]): 1515 pmol/g
- concentration at 0.083 h [25]: 2650 nM
- Ct (Rattus norvegicus [26]): 641 pmol/g
- concentration at 1.5 h [27]: 1790 nM
- Ct (Rattus norvegicus [28]): 155 pmol/g
- concentration at 6 h [29]: 1860 nM
- concentration at 1.5 h [30]: 1120 nM
- Ct (Rattus norvegicus [31]): < 125 pmol/g
- Ct (Rattus norvegicus [32]): 181 pmol/g
- concentration at 0.16 h [33]: 60 nM
- concentration at 18 h [34]: 583 nM
- concentration at 9 h [35]: 2900 nM
- Cmax (Rattus norvegicus [36]): 1666 pmol/g
- Ct (Rattus norvegicus [37]): 764 pmol/g
- concentration at 1.5 h [38]: 3720 nM
Compound: Cc1nc2cc(C(C)C)c(-c3ccc(Cl)c(OCC4CC4)c3)cc2c(=O)[nH]1
